From ChEMBL document CHEMBL4196147 (J Nat Prod, 2018)

How the values were obtained:
HCT-116 = test: Cytotoxicity against human HCT116 cells assessed as decrease in cell viability after 48 hrs by MTT assay; assay type: functional, cell-based; details: HCT-116, 48 h
L02 = test: Cytotoxicity against human LO2 cells assessed as decrease in cell viability after 48 hrs by MTT assay; assay type: ADME, cell-based; details: L02, 48 h
K562 = test: Cytotoxicity against human K562 cells assessed as decrease in cell viability after 48 hrs by MTT assay; assay type: functional, cell-based; details: K562, 48 h
[1] = Cytotoxicity against human Huh7.5 cells assessed as decrease in cell viability after 48 hrs by MTT assay; assay type: functional, cell-based; details: Huh7.5, 48 h

## C[C@@H]1O[C@@H](n2c3ccccc3c3c4c(c5c6ccccc6[nH]c5c32)CNC4=O)C[C@@H](N)[C@H]1O
HCT-116
  IC50: 5.1 µM
L02
  IC50: 5.8 µM
K562
  IC50: 7.7 µM
[1]
  IC50: 7 µM

## CC(=O)N[C@@H]1C[C@H](n2c3ccccc3c3c4c(c5c6ccccc6[nH]c5c32)CNC4=O)O[C@@H](C)[C@@H]1O
HCT-116
  IC50: > 100 µM
L02
  IC50: 41.1 µM
K562
  IC50: 32.4 µM
[1]
  IC50: 35.2 µM

## CC(=O)N[C@@H]1C[C@H]2O[C@@](C)([C@@H]1O)n1c3ccccc3c3c4c(c5c6ccccc6n2c5c31)C(=O)NC4
HCT-116
  IC50: 1 µM
L02
  IC50: 24.2 µM
K562
  IC50: 5.2 µM
[1]
  IC50: 2.1 µM

## CC(=O)N[C@@H]1C[C@H]2O[C@@](C)([C@@H]1O)n1c3ccc(O)cc3c3c4c(c5c6ccccc6n2c5c31)C(=O)NC4
HCT-116
  IC50: 2.7 µM
L02
  IC50: > 100 µM
K562
  IC50: 8.8 µM
[1]
  IC50: > 100 µM

## C[C@@H]1O[C@@H](n2c3ccccc3c3c4c(c5c6ccccc6[nH]c5c32)CNC4=O)[C@H](O)[C@H](O)[C@H]1O
HCT-116
  IC50: 9 µM
L02
  IC50: 73.8 µM
K562
  IC50: > 100 µM
[1]
  IC50: 46 µM

## C[C@]12O[C@H](C[C@@H](N)[C@H]1O)n1c3ccccc3c3c4c(c5c6ccccc6n2c5c31)CNC4=O
HCT-116
  IC50: 0.2 µM
L02
  IC50: 2.7 µM
K562
  IC50: 0.9 µM
[1]
  IC50: 0.4 µM

## CC(=O)c1cccn1[C@@H]1C[C@H]2O[C@@](C)([C@@H]1O)n1c3ccccc3c3c4c(c5c6ccccc6n2c5c31)C(=O)NC4
HCT-116
  IC50: 3.9 µM
L02
  IC50: > 100 µM
K562
  IC50: 10.5 µM
[1]
  IC50: 2.7 µM
